# Data taken from patent publication US20240043404A1 (AbbVie Inc., priority 2009, published 2024).
# Tested on: RS4;11 cells
# Assay: RS4;11 cell viability assay (CellTiter Glo);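 also: acute lymphoblastic leukemia line RS4,11, EC50 derived from percentage of viable cells after treatment relative to untreated controls, cell killing taken as a measure of Bcl-2 inhibition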
# Type: cell-based, human
# Conditions: Homo sapiens, RS4-11, 48 h, 50,000 cells per well, 10% human serum, 48 hours; read-out: RS4; 11 EC50 Values
# Procedure: The acute lymphoblastic leukemia (ALL) cell line RS4;11 was used as the primary human cell line to assess the cellular activity of Bcl-2 selective agents in vitro and their efficacy in vivo.
# Cell cytotoxicity EC50 values were assessed using CellTiter Glo (Promega) according to the manufacturer's recommendations. The EC50 values were determined as a percentage of viable cells following treatment compared to the untreated control cells.
row,EC50 [nM],Compound
1,15.7,"CC1(C)CC(c2ccc(Cl)cc2)=C(CN2CCN(c3ccc(C(=O)NS(=O)(=O)c4ccc(NCC5COCCO5)c([N+](=O)[O-])c4)c(Oc4cnc5[nH]ccc5c4)c3)CC2)CO1 (stereo not shown) [Example 31, 4-(4-{[4-(4-chlorophenyl)-6,6-dimethyl-5,6-dihydro-2H-pyran-3-yl]methyl}piperazin-1-yl)-N-({4-[(1,4-dioxan-2-ylmethyl)amino]-3-nitrophenyl}sulfonyl)-2-(1H-pyrrolo[2,3-b]pyridin-5-yloxy)benzamide]"
2,81.5,"CC1(C)CC(c2ccc(Cl)cc2)=C(CN2CCN(c3ccc(C(=O)NS(=O)(=O)c4ccc(OCC5COCCO5)c([N+](=O)[O-])c4)c(Oc4cnc5[nH]ccc5c4)c3)CC2)CO1 (stereo not shown) [Example 32, 4-(4-{[4-(4-chlorophenyl)-6,6-dimethyl-5,6-dihydro-2H-pyran-3-yl]methyl}piperazin-1-yl)-N-{[4-(1,4-dioxan-2-ylmethoxy)-3-nitrophenyl]sulfonyl}-2-(1H-pyrrolo[2,3-b]pyridin-5-yloxy)benzamide]"
3,7.11,"CC1(C)CC(c2ccc(Cl)cc2)=C(CN2CCN(c3ccc(C(=O)NS(=O)(=O)c4ccc(N[C@H]5CC[C@H](N6CCOCC6)CC5)c([N+](=O)[O-])c4)c(Oc4cnc5[nH]ccc5c4)c3)CC2)CO1 [Example 33, Trans-4-(4-{[4-(4-chlorophenyl)-6,6-dimethyl-5,6-dihydro-2H-pyran-3-yl]methyl}piperazin-1-yl)-N-({4-[(4-morpholin-4-ylcyclohexyl)amino]-3-nitrophenyl}sulfonyl)-2-(1H-pyrrolo[2,3-b]pyridin-5-yloxy)benzamide]"
4,7.48,"CO[C@H]1CC[C@H](CNc2ccc(S(=O)(=O)NC(=O)c3ccc(N4CCN(CC5=C(c6ccc(Cl)cc6)CC(C)(C)CC5)CC4)cc3Oc3cnc4[nH]ccc4c3)cc2[N+](=O)[O-])CC1 [Example 34, Trans-4-(4-{[2-(4-chlorophenyl)-4,4-dimethylcyclohex-1-en-1-yl]methyl}piperazin-1-yl)-N-[(4-{[(4-methoxycyclohexyl)methyl]amino}-3-nitrophenyl)sulfonyl]-2-(1H-pyrrolo[2,3-b]pyridin-5-yloxy)benzamide]"
5,291,"CC1(C)CC(c2ccc(Cl)cc2)=C(CN2CCN(c3ccc(C(=O)NS(=O)(=O)c4cnc(OCC5CCOCC5)c(C#N)c4)c(Oc4cnc5[nH]ccc5c4)c3)CC2)CO1 [Example 35, 4-(4-{[4-(4-chlorophenyl)-6,6-dimethyl-5,6-dihydro-2H-pyran-3-yl]methyl}piperazin-1-yl)-N-{[5-cyano-6-(tetrahydro-2H-pyran-4-ylmethoxy)pyridin-3-yl]sulfonyl}-2-(1H-pyrrolo[2,3-b]pyridin-5-yloxy)benzamide]"
6,181,"CC1(C)CCC(CN2CCN(c3ccc(C(=O)NS(=O)(=O)c4cnc(OCC5CCOCC5)c(C#N)c4)c(Oc4cnc5[nH]ccc5c4)c3)CC2)=C(c2ccc(Cl)cc2)C1 [Example 36, 4-(4-{[2-(4-chlorophenyl)-4,4-dimethylcyclohex-1-en-1-yl]methyl}piperazin-1-yl)-N-{[5-cyano-6-(tetrahydro-2H-pyran-4-ylmethoxy)pyridin-3-yl]sulfonyl}-2-(1H-pyrrolo[2,3-b]pyridin-5-yloxy)benzamide]"
7,1.18,"CC1(C)CCC(CN2CCN(c3ccc(C(=O)NS(=O)(=O)c4ccc(OCC5(F)CCOCC5)c([N+](=O)[O-])c4)c(Oc4cnc5[nH]ccc5c4)c3)CC2)=C(c2ccc(Cl)cc2)C1 [Example 37, 4-(4-{[2-(4-chlorophenyl)-4,4-dimethylcyclohex-1-en-1-yl]methyl}piperazin-1-yl)-N-({4-[(4-fluorotetrahydro-2H-pyran-4-yl)methoxy]-3-nitrophenyl}sulfonyl)-2-(1H-pyrrolo[2,3-b]pyridin-5-yloxy)benzamide]"
8,3510,"CC1(C)CCC(CN2CCN(c3ccc(C(=O)NS(=O)(=O)c4ccc(OCC5CCOCC5)c(C(N)=O)c4)c(Oc4cnc5[nH]ccc5c4)c3)CC2)=C(c2ccc(Cl)cc2)C1 [Example 38, N-{[3-(aminocarbonyl)-4-(tetrahydro-2H-pyran-4-ylmethoxy)phenyl]sulfonyl}-4-(4-{[2-(4-chlorophenyl)-4,4-dimethylcyclohex-1-en-1-yl]methyl}piperazin-1-yl)-2-(1H-pyrrolo[2,3-b]pyridin-5-yloxy)benzamide]"
9,19.7,"CC1(C)CCC(CN2CCN(c3ccc(C(=O)NS(=O)(=O)c4ccc(N[C@H]5CC[C@@H](N6CCOCC6)CC5)c([N+](=O)[O-])c4)c(Oc4cnc5[nH]ccc5c4)c3)CC2)=C(c2ccc(Cl)cc2)C1 [Example 39, Cis-4-(4-{[2-(4-chlorophenyl)-4,4-dimethylcyclohex-1-en-1-yl]methyl}piperazin-1-yl)-N-({4-[(4-morpholin-4-ylcyclohexyl)amino]-3-nitrophenyl}sulfonyl)-2-(1H-pyrrolo[2,3-b]pyridin-5-yloxy)benzamide]"
10,99.7,"CC1(C)CCC(CN2CCN(c3ccc(C(=O)NS(=O)(=O)c4cnc(OCC5CCOCC5)c(Cl)c4)c(Oc4cnc5[nH]ccc5c4)c3)CC2)=C(c2ccc(Cl)cc2)C1 [Example 40, 4-(4-{[2-(4-chlorophenyl)-4,4-dimethylcyclohex-1-en-1-yl]methyl}piperazin-1-yl)-N-{[5-chloro-6-(tetrahydro-2H-pyran-4-ylmethoxy)pyridin-3-yl]sulfonyl}-2-(1H-pyrrolo[2,3-b]pyridin-5-yloxy)benzamide]"
11,58,"CC1(C)CC(c2ccc(Cl)cc2)=C(CN2CCN(c3ccc(C(=O)NS(=O)(=O)c4cnc(OCC5CCOCC5)c(Cl)c4)c(Oc4cnc5[nH]ccc5c4)c3)CC2)CO1 [Example 41, 4-(4-{[4-(4-chlorophenyl)-6,6-dimethyl-5,6-dihydro-2H-pyran-3-yl]methyl}piperazin-1-yl)-N-{[5-chloro-6-(tetrahydro-2H-pyran-4-ylmethoxy)pyridin-3-yl]sulfonyl}-2-(1H-pyrrolo[2,3-b]pyridin-5-yloxy)benzamide]"
12,534,"CC1(C)CC(c2ccc(Cl)cc2)=C(CN2CCN(c3ccc(C(=O)NS(=O)(=O)c4ccc(NCC5CCOCC5)c(C(F)(F)F)c4)c(Oc4cnc5[nH]ccc5c4)c3)CC2)CO1 [Example 42, 4-(4-{[4-(4-chlorophenyl)-6,6-dimethyl-5,6-dihydro-2H-pyran-3-yl]methyl}piperazin-1-yl)-2-(1H-pyrrolo[2,3-b]pyridin-5-yloxy)-N-{[4-[(tetrahydro-2H-pyran-4-ylmethyl)amino]-3-(trifluoromethyl)phenyl]sulfonyl}benzamide]"
13,272,"CC1(C)CC(c2ccc(Cl)cc2)=C(CN2CCN(c3ccc(C(=O)NS(=O)(=O)c4ccc(NCC5CCOCC5)c(S(=O)(=O)C(F)(F)F)c4)c(Oc4cnc5[nH]ccc5c4)c3)CC2)CO1 [Example 43, 4-(4-{[4-(4-chlorophenyl)-6,6-dimethyl-5,6-dihydro-2H-pyran-3-yl]methyl}piperazin-1-yl)-2-(1H-pyrrolo[2,3-b]pyridin-5-yloxy)-N-({4-[(tetrahydro-2H-pyran-4-ylmethyl)amino]-3-[(trifluoromethyl)sulfonyl]phenyl}sulfonyl)benzamide]"
14,53.1,"CC1(C)CC(c2ccc(Cl)cc2)=C(CN2CCN(c3ccc(C(=O)NS(=O)(=O)c4ccc(N[C@H]5CC[C@H](N6CCOCC6)CC5)c(S(=O)(=O)C(F)(F)F)c4)c(Oc4cnc5[nH]ccc5c4)c3)CC2)CO1 [Example 44, Trans-4-(4-{[4-(4-chlorophenyl)-6,6-dimethyl-5,6-dihydro-2H-pyran-3-yl]methyl}piperazin-1-yl)-N-({4-[(4-morpholin-4-ylcyclohexyl)amino]-3-[(trifluoromethyl)sulfonyl]phenyl}sulfonyl)-2-(1H-pyrrolo[2,3-b]pyridin-5-yloxy)benzamide]"
15,9.92,"CN1CCC(Nc2ccc(S(=O)(=O)NC(=O)c3ccc(N4CCN(CC5=C(c6ccc(Cl)cc6)CC(C)(C)OC5)CC4)cc3Oc3cnc4[nH]ccc4c3)cc2S(=O)(=O)C(F)(F)F)CC1 [Example 45, 4-(4-{[4-(4-chlorophenyl)-6,6-dimethyl-5,6-dihydro-2H-pyran-3-yl]methyl}piperazin-1-yl)-N-({4-[(1-methylpiperidin-4-yl)amino]-3-[(trifluoromethyl)sulfonyl]phenyl}sulfonyl)-2-(1H-pyrrolo[2,3-b]pyridin-5-yloxy)benzamide]"
16,> 5000,"CC1(C)CCC(CN2CCN(c3ccc(C(=O)NS(=O)(=O)c4cnc(OCC5CCOCC5)c(C(N)=O)c4)c(Oc4cnc5[nH]ccc5c4)c3)CC2)=C(c2ccc(Cl)cc2)C1 [Example 46, 5-({[4-(4-{[2-(4-chlorophenyl)-4,4-dimethylcyclohex-1-en-1-yl]methyl}piperazin-1-yl)-2-(1H-pyrrolo[2,3-b]pyridin-5-yloxy)benzoyl]amino}sulfonyl)-2-(tetrahydro-2H-pyran-4-ylmethoxy)nicotinamide]"
17,32.6,"CN1CCC(COc2ncc(S(=O)(=O)NC(=O)c3ccc(N4CCN(CC5=C(c6ccc(Cl)cc6)CC(C)(C)CC5)CC4)cc3Oc3cnc4[nH]ccc4c3)cc2Br)CC1 [Example 47, N-({5-bromo-6-[(1-methylpiperidin-4-yl)methoxy]pyridin-3-yl}sulfonyl)-4-(4-{[2-(4-chlorophenyl)-4,4-dimethylcyclohex-1-en-1-yl]methyl}piperazin-1-yl)-2-(1H-pyrrolo[2,3-b]pyridin-5-yloxy)benzamide]"
18,3.33,"CN1CCC(COc2ccc(S(=O)(=O)NC(=O)c3ccc(N4CCN(CC5=C(c6ccc(Cl)cc6)CC(C)(C)CC5)CC4)cc3Oc3cnc4[nH]ccc4c3)cc2[N+](=O)[O-])CC1 [Example 48, 4-(4-{[2-(4-chlorophenyl)-4,4-dimethylcyclohex-1-en-1-yl]methyl}piperazin-1-yl)-N-({4-[(1-methylpiperidin-4-yl)methoxy]-3-nitrophenyl}sulfonyl)-2-(1H-pyrrolo[2,3-b]pyridin-5-yloxy)benzamide]"
19,352,"CC1(C)CCC(CN2CCN(c3ccc(C(=O)NS(=O)(=O)c4cnc(OCC5COCCO5)c(C#N)c4)c(Oc4cnc5[nH]ccc5c4)c3)CC2)=C(c2ccc(Cl)cc2)C1 (stereo not shown) [Example 49, 4-(4-{[2-(4-chlorophenyl)-4,4-dimethylcyclohex-1-en-1-yl]methyl}piperazin-1-yl)-N-{[5-cyano-6-(1,4-dioxan-2-ylmethoxy)pyridin-3-yl]sulfonyl}-2-(1H-pyrrolo[2,3-b]pyridin-5-yloxy)benzamide]"
